According to ChEMBL document CHEMBL3352609, “Synthesis of new 1-(4-methane(amino)sulfonylphenyl)-5-(4-substituted-aminomethylphenyl)-3-trifluoromethyl-1H-pyrazoles: a search for novel nitric oxide donor anti-inflammatory agents” (2014):

How the values were obtained:
Type in all cases: functional
Rattus norvegicus [1] = assay: Anti-inflammatory activity in carrageenan-induced rat foot paw edema model assessed as reduction in paw volume at 20 mg/kg dosed 30 mins before carrageenan injection and measured 3 hrs after carrageenan challenge
Rattus norvegicus [2] = assay: Anti-inflammatory activity in carrageenan-induced rat foot paw edema model assessed as reduction in paw volume at 20 mg/kg dosed 30 mins before carrageenan injection and measured 1 hr after carrageenan challenge
Rattus norvegicus [3] = assay: Anti-inflammatory activity in carrageenan-induced rat foot paw edema model assessed as reduction in paw volume at 20 mg/kg dosed 30 mins before carrageenan injection and measured 5 hrs after carrageenan challenge

SMILES | inhibition in vivo at 20 mg/kg (Rattus norvegicus [1]) [%] | inhibition in vivo at 20 mg/kg (Rattus norvegicus [2]) [%] | inhibition in vivo at 20 mg/kg (Rattus norvegicus [3]) [%]
CNCc1ccc(-c2cc(C(F)(F)F)nn2-c2ccc(S(C)(=O)=O)cc2)cc1 | 89 | 72 | 67
CCNCc1ccc(-c2cc(C(F)(F)F)nn2-c2ccc(S(C)(=O)=O)cc2)cc1 | 72 | 66 | 66
CS(=O)(=O)c1ccc(-n2nc(C(F)(F)F)cc2-c2ccc(CN3CCNCC3)cc2)cc1 | 73 | 67 | 66
CNCc1ccc(-c2cc(C(F)(F)F)nn2-c2ccc(S(N)(=O)=O)cc2)cc1 | 69 | 54 | 57
CCNCc1ccc(-c2cc(C(F)(F)F)nn2-c2ccc(S(N)(=O)=O)cc2)cc1 | 71 | 53 | 39
NS(=O)(=O)c1ccc(-n2nc(C(F)(F)F)cc2-c2ccc(CN3CCNCC3)cc2)cc1 | 70 | 58 | 35
CCN(Cc1ccc(-c2cc(C(F)(F)F)nn2-c2ccc(S(C)(=O)=O)cc2)cc1)N=O | 39 | 24 | 25
CS(=O)(=O)c1ccc(-n2nc(C(F)(F)F)cc2-c2ccc(CN3CCN(N=O)CC3)cc2)cc1 | 43 | 19 | 29
Cc1ccc(-c2cc(C(F)(F)F)nn2-c2ccc(S(N)(=O)=O)cc2)cc1 [CELECOXIB] | 80 | 40 | 48
